Our source for the Activity values is ChEMBL document CHEMBL5696441 (Nat Chem Biol, 2011).

Each structure is given as a SMILES string.

For assay [1], the target named is Cyclin-G-associated kinase (Homo sapiens) (UniProt O14976). The assay is described as follows: Inhibition of GAK (unknown origin) assessed as remaining activity at 1 uM by Kinome scan method relative to control.
The target in assay [2] is Cyclin-dependent kinase 11B (Homo sapiens) (UniProt P21127). Kind of assay: Inhibition of CDC2L1 (unknown origin) assessed as remaining activity at 1 uM by Kinome scan method relative to control.
Chain of Cyclin-dependent kinase 11B (Homo sapiens) (P21127 whole entry): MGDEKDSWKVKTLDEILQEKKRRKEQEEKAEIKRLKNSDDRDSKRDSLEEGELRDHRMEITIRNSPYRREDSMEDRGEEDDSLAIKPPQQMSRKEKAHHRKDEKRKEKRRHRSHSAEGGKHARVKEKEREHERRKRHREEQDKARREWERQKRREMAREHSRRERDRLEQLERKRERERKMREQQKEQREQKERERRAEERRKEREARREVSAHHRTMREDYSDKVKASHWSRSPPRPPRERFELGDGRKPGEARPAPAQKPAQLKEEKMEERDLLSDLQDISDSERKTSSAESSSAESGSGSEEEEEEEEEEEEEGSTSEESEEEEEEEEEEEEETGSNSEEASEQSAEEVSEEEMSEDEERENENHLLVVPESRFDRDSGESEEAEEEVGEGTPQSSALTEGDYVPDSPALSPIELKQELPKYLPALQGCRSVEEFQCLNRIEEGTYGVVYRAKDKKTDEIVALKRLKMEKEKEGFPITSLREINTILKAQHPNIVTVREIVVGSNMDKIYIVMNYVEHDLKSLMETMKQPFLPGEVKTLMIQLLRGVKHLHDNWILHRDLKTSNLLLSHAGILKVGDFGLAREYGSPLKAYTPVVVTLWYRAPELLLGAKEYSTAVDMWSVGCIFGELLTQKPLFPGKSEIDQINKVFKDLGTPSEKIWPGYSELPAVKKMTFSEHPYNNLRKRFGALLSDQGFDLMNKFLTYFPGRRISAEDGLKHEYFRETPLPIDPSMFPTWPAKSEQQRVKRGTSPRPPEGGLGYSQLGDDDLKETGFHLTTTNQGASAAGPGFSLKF
The target in assay [3] is Cyclin-dependent kinase 17 (Homo sapiens) (UniProt Q00537). The assay is described as follows: Inhibition of PCTK2 (unknown origin) assessed as remaining activity at 1 uM by Kinome scan method relative to control.
Chain of Cyclin-dependent kinase 17 (Homo sapiens) (Q00537 whole entry, looked up): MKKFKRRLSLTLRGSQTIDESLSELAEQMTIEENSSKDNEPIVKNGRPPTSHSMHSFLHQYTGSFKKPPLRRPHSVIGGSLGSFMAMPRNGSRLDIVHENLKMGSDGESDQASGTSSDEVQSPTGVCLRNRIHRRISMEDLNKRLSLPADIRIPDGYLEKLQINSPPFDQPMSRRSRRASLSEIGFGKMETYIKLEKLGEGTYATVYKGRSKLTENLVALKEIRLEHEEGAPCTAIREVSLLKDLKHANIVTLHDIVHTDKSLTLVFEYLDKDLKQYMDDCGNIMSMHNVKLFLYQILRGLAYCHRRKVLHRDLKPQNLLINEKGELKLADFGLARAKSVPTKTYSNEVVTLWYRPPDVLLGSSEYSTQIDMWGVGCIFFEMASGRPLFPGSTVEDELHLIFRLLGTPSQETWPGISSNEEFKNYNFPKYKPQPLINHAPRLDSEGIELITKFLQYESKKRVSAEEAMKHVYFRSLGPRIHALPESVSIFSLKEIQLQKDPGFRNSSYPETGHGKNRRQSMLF
The target of assay [4] is Serine/threonine-protein kinase BRSK2 (Homo sapiens) (UniProt Q8IWQ3). Kind of assay: Inhibition of BRSK2 (unknown origin) assessed as remaining activity at 1 uM by Kinome scan method relative to control.
For assay [5], the target named is T1, Megakaryocyte-associated tyrosine-protein kinase (Homo sapiens) (UniProt P42679).
T1 sequence (whole entry): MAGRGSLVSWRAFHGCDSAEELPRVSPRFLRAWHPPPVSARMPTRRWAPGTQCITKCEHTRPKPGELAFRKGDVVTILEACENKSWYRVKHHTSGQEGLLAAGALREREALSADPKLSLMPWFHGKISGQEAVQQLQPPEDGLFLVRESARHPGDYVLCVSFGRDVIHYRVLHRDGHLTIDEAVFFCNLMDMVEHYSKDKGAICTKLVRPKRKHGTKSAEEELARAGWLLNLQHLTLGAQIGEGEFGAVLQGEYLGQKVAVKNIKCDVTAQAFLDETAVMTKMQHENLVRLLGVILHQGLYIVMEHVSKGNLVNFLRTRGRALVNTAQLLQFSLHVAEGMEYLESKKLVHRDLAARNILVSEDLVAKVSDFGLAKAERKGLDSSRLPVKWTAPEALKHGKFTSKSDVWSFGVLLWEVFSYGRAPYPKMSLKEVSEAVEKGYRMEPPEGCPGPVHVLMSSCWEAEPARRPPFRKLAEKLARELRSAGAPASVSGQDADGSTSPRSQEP
Kind of assay: Inhibition of CTK (unknown origin) assessed as remaining activity at 1 uM by Kinome scan method relative to control.

Assay [6] concerns the target Mitogen-activated protein kinase 7 (Homo sapiens) (UniProt Q13164). Kind of assay: Inhibition of ERK5 (unknown origin) assessed as remaining activity at 1 uM by Kinome scan method relative to control.
Assay [7] deals with Dual specificity tyrosine-phosphorylation-regulated kinase 2 (Homo sapiens) (UniProt Q92630). The assay is described as follows: Inhibition of DYRK2 (unknown origin) assessed as remaining activity at 1 uM by Kinome scan method relative to control.
Chain of Dual specificity tyrosine-phosphorylation-regulated kinase 2 (Homo sapiens) (Q92630 whole entry): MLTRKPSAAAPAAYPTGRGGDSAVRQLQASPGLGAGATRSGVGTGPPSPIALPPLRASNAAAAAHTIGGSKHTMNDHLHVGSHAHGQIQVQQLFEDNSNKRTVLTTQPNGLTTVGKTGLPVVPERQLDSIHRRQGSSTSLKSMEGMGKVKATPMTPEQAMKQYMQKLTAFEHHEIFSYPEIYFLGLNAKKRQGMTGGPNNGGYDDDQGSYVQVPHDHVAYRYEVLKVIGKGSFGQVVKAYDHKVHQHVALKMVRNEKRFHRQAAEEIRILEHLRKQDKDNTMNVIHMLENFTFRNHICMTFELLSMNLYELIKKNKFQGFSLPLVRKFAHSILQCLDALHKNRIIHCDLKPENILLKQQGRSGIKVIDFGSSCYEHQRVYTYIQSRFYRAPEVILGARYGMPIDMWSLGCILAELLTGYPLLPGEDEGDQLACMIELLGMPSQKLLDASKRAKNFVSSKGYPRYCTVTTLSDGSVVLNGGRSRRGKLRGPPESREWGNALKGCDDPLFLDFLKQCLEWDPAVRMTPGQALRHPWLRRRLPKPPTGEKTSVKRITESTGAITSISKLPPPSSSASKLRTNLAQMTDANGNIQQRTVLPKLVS
Assay [8] deals with T2, cGMP-dependent protein kinase 2 (Homo sapiens) (UniProt Q13237).
T2 sequence (whole entry): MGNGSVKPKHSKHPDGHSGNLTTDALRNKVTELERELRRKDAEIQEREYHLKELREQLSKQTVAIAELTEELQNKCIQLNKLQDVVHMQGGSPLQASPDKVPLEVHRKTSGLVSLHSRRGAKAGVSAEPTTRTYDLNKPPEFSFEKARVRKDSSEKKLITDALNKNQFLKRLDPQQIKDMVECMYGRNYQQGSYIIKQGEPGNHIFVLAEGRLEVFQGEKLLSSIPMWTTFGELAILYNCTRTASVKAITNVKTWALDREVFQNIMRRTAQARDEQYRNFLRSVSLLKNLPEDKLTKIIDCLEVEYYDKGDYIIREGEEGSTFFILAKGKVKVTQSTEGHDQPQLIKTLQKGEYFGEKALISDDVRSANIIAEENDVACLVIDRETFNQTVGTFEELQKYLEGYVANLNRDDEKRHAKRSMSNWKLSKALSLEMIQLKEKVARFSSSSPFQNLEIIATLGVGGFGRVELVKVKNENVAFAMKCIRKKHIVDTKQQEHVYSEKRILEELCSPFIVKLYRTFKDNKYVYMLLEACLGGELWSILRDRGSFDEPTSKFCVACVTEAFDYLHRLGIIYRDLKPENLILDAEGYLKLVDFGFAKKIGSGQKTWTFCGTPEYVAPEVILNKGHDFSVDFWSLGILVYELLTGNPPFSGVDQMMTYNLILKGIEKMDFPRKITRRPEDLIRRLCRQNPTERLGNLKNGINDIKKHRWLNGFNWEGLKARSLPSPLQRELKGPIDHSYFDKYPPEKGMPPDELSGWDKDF
Kind of assay: Inhibition of PRKG2 (unknown origin) assessed as remaining activity at 1 uM by Kinome scan method relative to control.

Assay [9] has as its target Interferon-induced, double-stranded RNA-activated protein kinase (Homo sapiens) (UniProt P19525). The assay is described as follows: Inhibition of PRKR (unknown origin) assessed as remaining activity at 1 uM by Kinome scan method relative to control.
The target of assay [10] is T3, Tyrosine-protein kinase ITK/TSK (Homo sapiens) (UniProt Q08881).
T3 sequence (whole entry): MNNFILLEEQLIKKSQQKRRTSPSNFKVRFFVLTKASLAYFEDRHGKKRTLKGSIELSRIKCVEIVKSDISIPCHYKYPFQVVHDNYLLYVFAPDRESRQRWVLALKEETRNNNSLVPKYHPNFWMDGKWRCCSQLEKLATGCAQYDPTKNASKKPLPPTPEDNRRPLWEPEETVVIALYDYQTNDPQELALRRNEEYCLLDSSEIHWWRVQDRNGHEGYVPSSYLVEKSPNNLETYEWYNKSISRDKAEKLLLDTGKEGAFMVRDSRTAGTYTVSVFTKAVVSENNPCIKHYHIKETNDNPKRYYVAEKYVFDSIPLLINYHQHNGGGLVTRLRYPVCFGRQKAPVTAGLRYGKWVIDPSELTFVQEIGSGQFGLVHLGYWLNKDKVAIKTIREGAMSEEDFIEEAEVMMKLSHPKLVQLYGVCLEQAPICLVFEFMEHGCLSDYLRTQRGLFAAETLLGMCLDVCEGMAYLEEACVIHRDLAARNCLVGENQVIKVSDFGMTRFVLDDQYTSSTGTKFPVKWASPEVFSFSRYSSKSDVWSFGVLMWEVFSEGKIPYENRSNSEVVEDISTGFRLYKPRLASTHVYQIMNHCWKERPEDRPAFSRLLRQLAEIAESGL
Kind of assay: Inhibition of ITK (unknown origin) assessed as remaining activity at 1 uM by Kinome scan method relative to control.

Assay [11] deals with Mitogen-activated protein kinase kinase kinase kinase 4 (Homo sapiens) (UniProt O95819). The assay is described as follows: Inhibition of MAP4K4 (unknown origin) assessed as remaining activity at 1 uM by Kinome scan method relative to control.
Chain of Mitogen-activated protein kinase kinase kinase kinase 4 (Homo sapiens) (O95819 2-1239 limits assumed): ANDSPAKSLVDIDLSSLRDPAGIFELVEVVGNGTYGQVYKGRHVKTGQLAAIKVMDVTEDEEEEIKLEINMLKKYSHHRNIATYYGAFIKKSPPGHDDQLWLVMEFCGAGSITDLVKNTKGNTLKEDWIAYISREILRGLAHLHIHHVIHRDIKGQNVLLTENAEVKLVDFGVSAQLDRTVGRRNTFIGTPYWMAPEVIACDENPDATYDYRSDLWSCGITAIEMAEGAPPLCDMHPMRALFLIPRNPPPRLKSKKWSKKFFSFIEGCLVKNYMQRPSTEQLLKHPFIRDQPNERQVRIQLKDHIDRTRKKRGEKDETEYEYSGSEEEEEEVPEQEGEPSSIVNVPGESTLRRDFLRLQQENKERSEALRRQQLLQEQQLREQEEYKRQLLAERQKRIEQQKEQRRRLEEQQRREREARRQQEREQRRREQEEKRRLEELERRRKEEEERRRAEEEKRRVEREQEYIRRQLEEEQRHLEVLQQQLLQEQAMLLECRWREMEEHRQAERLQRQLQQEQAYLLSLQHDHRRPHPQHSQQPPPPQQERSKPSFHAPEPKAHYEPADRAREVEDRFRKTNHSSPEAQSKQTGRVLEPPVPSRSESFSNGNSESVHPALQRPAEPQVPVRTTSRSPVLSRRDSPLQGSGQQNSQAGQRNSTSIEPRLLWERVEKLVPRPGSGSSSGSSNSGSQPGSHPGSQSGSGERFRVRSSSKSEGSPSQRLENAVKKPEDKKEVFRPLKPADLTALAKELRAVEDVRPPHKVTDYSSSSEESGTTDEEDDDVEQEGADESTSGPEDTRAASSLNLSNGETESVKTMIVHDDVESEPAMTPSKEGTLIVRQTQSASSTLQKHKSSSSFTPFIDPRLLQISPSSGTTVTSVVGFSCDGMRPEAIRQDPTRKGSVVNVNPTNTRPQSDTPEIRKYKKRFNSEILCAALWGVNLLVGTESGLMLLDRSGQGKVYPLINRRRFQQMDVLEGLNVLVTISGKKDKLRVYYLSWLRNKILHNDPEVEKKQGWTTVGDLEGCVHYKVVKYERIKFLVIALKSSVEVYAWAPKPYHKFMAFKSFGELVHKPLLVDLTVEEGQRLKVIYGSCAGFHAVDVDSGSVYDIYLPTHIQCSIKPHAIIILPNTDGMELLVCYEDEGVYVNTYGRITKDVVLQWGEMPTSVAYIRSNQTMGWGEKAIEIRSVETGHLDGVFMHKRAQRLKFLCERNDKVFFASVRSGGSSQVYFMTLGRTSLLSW
Assay [12] addresses Tyrosine-protein kinase Lyn (Homo sapiens) (UniProt P07948). The assay is described as follows: Inhibition of LYN (unknown origin) assessed as remaining activity at 1 uM by Kinome scan method relative to control.

Chain of Cyclin-G-associated kinase (Homo sapiens) (O14976 whole entry): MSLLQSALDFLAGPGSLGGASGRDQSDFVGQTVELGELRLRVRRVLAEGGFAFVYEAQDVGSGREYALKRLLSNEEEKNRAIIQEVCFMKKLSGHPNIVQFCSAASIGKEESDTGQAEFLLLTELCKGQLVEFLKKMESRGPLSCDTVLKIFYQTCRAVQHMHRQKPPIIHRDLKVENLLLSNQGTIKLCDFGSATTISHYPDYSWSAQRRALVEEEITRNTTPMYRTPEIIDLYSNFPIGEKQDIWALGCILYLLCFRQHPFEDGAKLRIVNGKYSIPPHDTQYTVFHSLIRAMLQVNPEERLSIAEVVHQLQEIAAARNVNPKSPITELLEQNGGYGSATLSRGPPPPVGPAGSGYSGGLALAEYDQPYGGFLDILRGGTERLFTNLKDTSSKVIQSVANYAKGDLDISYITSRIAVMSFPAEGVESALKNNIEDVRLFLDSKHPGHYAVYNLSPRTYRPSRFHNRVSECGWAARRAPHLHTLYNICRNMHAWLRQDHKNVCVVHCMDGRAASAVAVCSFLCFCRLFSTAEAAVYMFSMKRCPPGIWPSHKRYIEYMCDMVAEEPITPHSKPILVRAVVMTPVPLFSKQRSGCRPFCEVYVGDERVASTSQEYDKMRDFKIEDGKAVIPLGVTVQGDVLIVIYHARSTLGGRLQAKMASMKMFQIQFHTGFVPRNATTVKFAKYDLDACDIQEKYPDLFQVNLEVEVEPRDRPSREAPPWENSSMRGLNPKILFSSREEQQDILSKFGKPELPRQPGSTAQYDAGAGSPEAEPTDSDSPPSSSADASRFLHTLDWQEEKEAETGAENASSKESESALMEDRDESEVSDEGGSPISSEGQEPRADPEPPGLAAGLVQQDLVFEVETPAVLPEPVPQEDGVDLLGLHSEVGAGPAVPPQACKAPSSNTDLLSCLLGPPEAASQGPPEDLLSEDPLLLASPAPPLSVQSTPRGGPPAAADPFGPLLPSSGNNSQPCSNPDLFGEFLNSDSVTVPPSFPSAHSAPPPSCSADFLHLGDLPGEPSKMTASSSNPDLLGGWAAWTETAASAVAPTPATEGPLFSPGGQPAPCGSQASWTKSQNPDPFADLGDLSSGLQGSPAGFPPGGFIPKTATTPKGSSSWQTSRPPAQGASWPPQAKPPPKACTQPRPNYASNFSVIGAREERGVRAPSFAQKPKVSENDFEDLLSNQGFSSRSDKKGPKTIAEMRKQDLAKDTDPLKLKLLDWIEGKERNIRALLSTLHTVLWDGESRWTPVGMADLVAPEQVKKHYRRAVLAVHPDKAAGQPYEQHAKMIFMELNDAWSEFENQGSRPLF
Chain of Tyrosine-protein kinase Lyn (Homo sapiens) (P07948 2-512 limits assumed): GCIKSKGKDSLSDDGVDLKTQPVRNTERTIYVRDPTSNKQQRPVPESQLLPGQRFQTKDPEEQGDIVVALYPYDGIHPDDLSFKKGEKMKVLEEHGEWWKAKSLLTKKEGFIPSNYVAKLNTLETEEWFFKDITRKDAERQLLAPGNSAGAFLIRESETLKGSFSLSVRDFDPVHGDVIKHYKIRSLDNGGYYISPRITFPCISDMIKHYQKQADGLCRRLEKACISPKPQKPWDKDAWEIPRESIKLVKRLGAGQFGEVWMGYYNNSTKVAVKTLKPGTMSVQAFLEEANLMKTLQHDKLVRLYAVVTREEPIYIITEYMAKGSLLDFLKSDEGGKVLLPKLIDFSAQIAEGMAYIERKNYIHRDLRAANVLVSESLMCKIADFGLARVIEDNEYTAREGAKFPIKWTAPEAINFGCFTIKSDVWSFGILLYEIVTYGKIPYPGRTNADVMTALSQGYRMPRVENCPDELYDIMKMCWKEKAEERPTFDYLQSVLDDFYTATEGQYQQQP

For `Nc1ccccc1Nc1ccc2c(c1)CCc1ccccc1C2=O`, the Activity in assay [1] is 93%; in assay [2], 94%; in assay [3] it was 93%; in [4] it was 91%; in assay [5], 71%; in assay [6] it was 96%. Also, the Activity in assay [7] amounted to 75%; in assay [8], 91%; in assay [9] it was 86%; in assay [10], 98%; in assay [11], 94%; in assay [12], 99%.
As to `O=C1c2ccc(Nc3ccc(F)cc3F)cc2CCc2ccc(OC[C@H](O)CO)cc21` [Skepinone-L], the Activity is 53% in assay [1]; 99% in assay [2]; 89% in assay [3]; 94% in assay [4]; 80% in assay [5]; 99% in assay [6]. Besides, the Activity in assay [7] was found to be 86%; in [8] it was 100%; in [9] it was 82%; in assay [10], 100%; in assay [11], 100%; in assay [12], 93%.
